BindingDB's records for doi:10.1021/jm00148a009 (1985)

Target: Prostacyclin synthase (Sus scrofa)
Test: Inhibition of porcine aorta prostacyclin PGI-2 synthase by bioassay method

Row | IC50 | SMILES
1 | > 100 µM | CC(=O)Nc1ccc(OCCn2ccnc2)cc1 [N-[4-(2-Imidazol-1-yl-ethoxy)-phenyl]-acetamide]
2 | > 100 µM | O=C(O)Cc1ccccc1OCCn1ccnc1 [[2-(2-Imidazol-1-yl-ethoxy)-phenyl]-acetic acid]
3 | > 100 µM | c1cn(CCOc2ccc(-c3nnn[nH]3)cc2)cn1 [5-[4-(2-Imidazol-1-yl-ethoxy)-phenyl]-1H-tetrazole]
